Assay results taken from US8183351B2, “Avermectin derivatives” (Bayer Cropscience AG, priority 2006, dated 2012).

system: larvae of the mustard beetle (Phaedon cochleariae); assay: Phaedon test (PHAECO spray treatment); assay type: in vivo; details: Example D; 4 ppm active compound; sprayed Chinese cabbage discs
Description: Phaedon Test (PHAECO Spray Treatment)
• Solvents: 78 parts by weight of acetone • 1.5 parts by weight of dimethylformamide • Emulsifier: 0.5 part by weight of alkylaryl polyglyycol ether
After the desired period of time, the effect in % is determined. 100% means that all beetle larvae have been killed; 0% means that none of the beetle larvae have been killed.

SMILES	Kill rate in % after 7 days [%]
CC[C@H](C)[C@H]1OC2(C=C[C@@H]1C)C[C@@H]1C[C@@H](C/C=C(\C)[C@@H](OC3CC(OC)C(OC(=O)Cn4ccnn4)C(C)O3)[C@@H](C)/C=C/C=C3\CO[C@@H]4[C@H](O)C(C)=CC(C(=O)O1)[C@]34O)O2 (stereo partly drawn) [Example 3]	80

same assay, conditions: Example G; 4 ppm active compound; sprayed Chinese cabbage discs

SMILES	Kill rate in % after 7 days [%]
CCC(C)C1OC2(C=CC1C)CC1CC(CC=C(C)C(OC3CC(OC)C(OC(=O)C(C)N4CCN(C(=O)OC(C)(C)C)CC4)C(C)O3)C(C)C=CC=C3COC4C(O)C(C)=CC(C(=O)O1)C34O)O2 (mixture of isomers) [Example 77]	100
CC[C@H](C)[C@H]1OC2(CC[C@@H]1C)C[C@@H]1C[C@@H](C/C=C(\C)[C@@H](OC3CC(OC)C(OC(=O)Cn4cccn4)C(C)O3)[C@@H](C)/C=C/C=C3\CO[C@@H]4[C@H](O)C(C)=CC(C(=O)O1)[C@]34O)O2 (stereo partly drawn) [Example 22]	100
CC[C@H](C)[C@H]1OC2(C=C[C@@H]1C)C[C@@H]1C[C@@H](C/C=C(\C)[C@@H](OC3CC(OC)C(OC(=O)CC4CCCO4)C(C)O3)[C@@H](C)/C=C/C=C3\CO[C@@H]4[C@H](O)C(C)=CC(C(=O)O1)[C@]34O)O2 (stereo partly drawn) [Example 31]	100
CC[C@H](C)[C@H]1OC2(C=C[C@@H]1C)C[C@@H]1C[C@@H](C/C=C(\C)[C@@H](OC3CC(OC)C(OC(=O)C4CC4(Cl)Cl)C(C)O3)[C@@H](C)/C=C/C=C3\CO[C@@H]4[C@H](O)C(C)=CC(C(=O)O1)[C@]34O)O2 (stereo partly drawn) [Example 37]	100
CC[C@H](C)[C@H]1OC2(C=C[C@@H]1C)C[C@@H]1C[C@@H](C/C=C(\C)[C@@H](OC3CC(OC)C(OC(=O)Cn4nc(C(F)(F)F)cc4OC)C(C)O3)[C@@H](C)/C=C/C=C3\CO[C@@H]4[C@H](O)C(C)=CC(C(=O)O1)[C@]34O)O2 (stereo partly drawn) [Example 41]	83
CC[C@H](C)[C@H]1OC2(C=C[C@@H]1C)C[C@@H]1C[C@@H](C/C=C(\C)[C@@H](OC3CC(OC)C(OC(=O)Cc4c(C)noc4C)C(C)O3)[C@@H](C)/C=C/C=C3\CO[C@@H]4[C@H](O)C(C)=CC(C(=O)O1)[C@]34O)O2 (stereo partly drawn) [Example 43]	100
CC[C@H](C)[C@H]1OC2(C=C[C@@H]1C)C[C@@H]1C[C@@H](C/C=C(\C)[C@@H](OC3CC(OC)C(OC(=O)Cn4c(C)ccc4C)C(C)O3)[C@@H](C)/C=C/C=C3\CO[C@@H]4[C@H](O)C(C)=CC(C(=O)O1)[C@]34O)O2 (stereo partly drawn) [Example 44]	100
CC[C@H](C)[C@H]1OC2(C=C[C@@H]1C)C[C@@H]1C[C@@H](C/C=C(\C)[C@@H](OC3CC(OC)C(OC(=O)CN4CCC(NC(=O)OC(C)(C)C)CC4)C(C)O3)[C@@H](C)/C=C/C=C3\CO[C@@H]4[C@H](O)C(C)=CC(C(=O)O1)[C@]34O)O2 (stereo partly drawn) [Example 51]	100
CC[C@H](C)[C@H]1OC2(C=C[C@@H]1C)C[C@@H]1C[C@@H](C/C=C(\C)[C@@H](OC3CC(OC)C(OC(=O)CN4CCN(C(=O)OC(C)(C)C)CC4)C(C)O3)[C@@H](C)/C=C/C=C3\CO[C@@H]4[C@H](O)C(C)=CC(C(=O)O1)[C@]34O)O2 (stereo partly drawn) [Example 53, 4′-O-{[4-(tert-Butoxycarbonyl)piperazin-1-yl]acetyl}-avermectin B1 monosaccharide]	100
CC[C@H](C)[C@H]1OC2(C=C[C@@H]1C)C[C@@H]1C[C@@H](C/C=C(\C)[C@@H](OC3CC(OC)C(OC(=O)C(C)n4ccnn4)C(C)O3)[C@@H](C)/C=C/C=C3\CO[C@@H]4[C@H](O)C(C)=CC(C(=O)O1)[C@]34O)O2 (stereo partly drawn) [Example 56]	100
CC[C@H](C)[C@H]1OC2(C=C[C@@H]1C)C[C@@H]1C[C@@H](C/C=C(\C)[C@@H](OC3CC(OC)C(OC(=O)C(C)n4ccnc4)C(C)O3)[C@@H](C)/C=C/C=C3\CO[C@@H]4[C@H](O)C(C)=CC(C(=O)O1)[C@]34O)O2 (stereo partly drawn) [Example 58]	100
CC[C@H](C)[C@H]1OC2(C=C[C@@H]1C)C[C@@H]1C[C@@H](C/C=C(\C)[C@@H](OC3CC(OC)C(OC(=O)C(C)n4ccnn4)C(C)O3)[C@@H](C)/C=C/C=C3\CO[C@@H]4[C@H](O)C(C)=CC(C(=O)O1)[C@]34O)O2 (stereo partly drawn) [Example 61]	100
CC[C@H](C)[C@H]1OC2(C=C[C@@H]1C)C[C@@H]1C[C@@H](C/C=C(\C)[C@@H](OC3CC(OC)C(OC(=O)C(C)n4cccn4)C(C)O3)[C@@H](C)/C=C/C=C3\CO[C@@H]4[C@H](O)C(C)=CC(C(=O)O1)[C@]34O)O2 (stereo partly drawn) [Example 62]	100
CC[C@H](C)[C@H]1OC2(C=C[C@@H]1C)C[C@@H]1C[C@@H](C/C=C(\C)[C@@H](OC3CC(OC)C(OC(=O)Cn4nc(C)n(C)c4=O)C(C)O3)[C@@H](C)/C=C/C=C3\CO[C@@H]4[C@H](O)C(C)=CC(C(=O)O1)[C@]34O)O2 (stereo partly drawn) [Example 63]	100
CC[C@H](C)[C@H]1OC2(C=C[C@@H]1C)C[C@@H]1C[C@@H](C/C=C(\C)[C@@H](OC3CC(OC)C(OC(=O)Cn4nc(OC)n(C)c4=O)C(C)O3)[C@@H](C)/C=C/C=C3\CO[C@@H]4[C@H](O)C(C)=CC(C(=O)O1)[C@]34O)O2 (stereo partly drawn) [Example 64]	100
CC[C@H](C)[C@H]1OC2(C=C[C@@H]1C)C[C@@H]1C[C@@H](C/C=C(\C)[C@@H](OC3CC(OC)C(OC(=O)Cc4ccccn4)C(C)O3)[C@@H](C)/C=C/C=C3\CO[C@@H]4[C@H](O)C(C)=CC(C(=O)O1)[C@]34O)O2 (stereo partly drawn) [Example 65]	100
CC[C@H](C)[C@H]1OC2(C=C[C@@H]1C)C[C@@H]1C[C@@H](C/C=C(\C)[C@@H](OC3CC(OC)C(OC(=O)CN4CCOCC4)C(C)O3)[C@@H](C)/C=C/C=C3\CO[C@@H]4[C@H](O)C(C)=CC(C(=O)O1)[C@]34O)O2 (stereo partly drawn) [Example 79]	100
CC[C@H](C)[C@H]1OC2(C=C[C@@H]1C)C[C@@H]1C[C@@H](C/C=C(\C)[C@@H](OC3CC(OC)C(OC(=O)CN4CCNCC4)C(C)O3)[C@@H](C)/C=C/C=C3\CO[C@@H]4[C@H](O)C(C)=CC(C(=O)O1)[C@]34O)O2 (stereo partly drawn) [Example 101, 4′-O-(piperazin-1-ylacetyl)-avermectin B1 monosaccharide]	100
CC[C@H](C)[C@H]1OC2(C=C[C@@H]1C)C[C@@H]1C[C@@H](C/C=C(\C)[C@@H](OC3CC(OC)C(OC(=O)CNC)C(C)O3)[C@@H](C)/C=C/C=C3\CO[C@@H]4[C@H](O)C(C)=CC(C(=O)O1)[C@]34O)O2 (stereo partly drawn) [Example 104]	100

system: caterpillars of the army worm (Spodoptera frugiperda); assay: Spodoptera frugiperda test (SPODFR spray treatment); assay type: in vivo; details: Example I; 4 ppm active compound; sprayed maize leaf discs
Description: Spodoptera frugiperda Test (SPODFR Spray Treatment)
• Solvents: 78.0 parts by weight of acetone • 1.5 parts by weight of dimethylformamide • Emulsifier: 0.5 part by weight of alkylaryl polyglyycol ether
After the desired period of time, the effect in % is determined. 100% means that all caterpillars have been killed; 0% means that none of the caterpillars have been killed.

SMILES	Kill rate in % after 5 days [%]
CC[C@H](C)[C@H]1O[C@]2(C=C[C@@H]1C)C[C@@H]1C[C@@H](C/C=C(\C)[C@@H](O[C@H]3C[C@H](OC)[C@@H](OC(=O)c4ccc(Cl)cc4)[C@H](C)O3)[C@@H](C)/C=C/C=C3\CO[C@@H]4[C@H](O)C(C)=C[C@@H](C(=O)O1)[C@]34O)O2 [4′-O-(4-chlorobenzoyl)-4′-O-de(2,6-dideoxy-3-O-methyl-α-L-arabino-hexopyranosyl)-5-O-demethyl-avermectin A1a, reference compound]	0
CC[C@H](C)[C@H]1OC2(C=C[C@@H]1C)C[C@@H]1C[C@@H](C/C=C(\C)[C@@H](OC3CC(OC)C(OC(=O)COC)C(C)O3)[C@@H](C)/C=C/C=C3\CO[C@@H]4[C@H](O)C(C)=CC(C(=O)O1)[C@]34O)O2 (stereo partly drawn) [Example 30]	100
CC[C@H](C)[C@H]1OC2(C=C[C@@H]1C)C[C@@H]1C[C@@H](C/C=C(\C)[C@@H](OC3CC(OC)C(OC(=O)C4CCC(=O)N4)C(C)O3)[C@@H](C)/C=C/C=C3\CO[C@@H]4[C@H](O)C(C)=CC(C(=O)O1)[C@]34O)O2 (stereo partly drawn) [Example 38]	100
CC[C@H](C)[C@H]1OC2(C=C[C@@H]1C)C[C@@H]1C[C@@H](C/C=C(\C)[C@@H](OC3CC(OC)C(OC(=O)COc4ccc(Cl)cc4)C(C)O3)[C@@H](C)/C=C/C=C3\CO[C@@H]4[C@H](O)C(C)=CC(C(=O)O1)[C@]34O)O2 (stereo partly drawn) [Example 39]	100
CC[C@H](C)[C@H]1OC2(C=C[C@@H]1C)C[C@@H]1C[C@@H](C/C=C(\C)[C@@H](OC3CC(OC)C(OC(=O)Cc4csc(-c5ccncc5)n4)C(C)O3)[C@@H](C)/C=C/C=C3\CO[C@@H]4[C@H](O)C(C)=CC(C(=O)O1)[C@]34O)O2 (stereo partly drawn) [Example 46]	100
CC[C@H](C)[C@H]1OC2(C=C[C@@H]1C)C[C@@H]1C[C@@H](C/C=C(\C)[C@@H](OC3CC(OC)C(OC(=O)Cc4nc(C)sc4C)C(C)O3)[C@@H](C)/C=C/C=C3\CO[C@@H]4[C@H](O)C(C)=CC(C(=O)O1)[C@]34O)O2 (stereo partly drawn) [Example 47]	100
CC[C@H](C)[C@H]1OC2(C=C[C@@H]1C)C[C@@H]1C[C@@H](C/C=C(\C)[C@@H](OC3CC(OC)C(OC(=O)Cn4ccnc4)C(C)O3)[C@@H](C)/C=C/C=C3\CO[C@@H]4[C@H](O)C(C)=CC(C(=O)O1)[C@]34O)O2 (stereo partly drawn) [Example 49]	100
CC[C@H](C)[C@H]1OC2(C=C[C@@H]1C)C[C@@H]1C[C@@H](C/C=C(\C)[C@@H](OC3CC(OC)C(OC(=O)CCn4ccnc4)C(C)O3)[C@@H](C)/C=C/C=C3\CO[C@@H]4[C@H](O)C(C)=CC(C(=O)O1)[C@]34O)O2 (stereo partly drawn) [Example 86]	100
CC[C@H](C)[C@H]1OC2(C=C[C@@H]1C)C[C@@H]1C[C@@H](C/C=C(\C)[C@@H](OC3CC(OC)C(OC(=O)c4ccc(OC(F)(F)F)cc4)C(C)O3)[C@@H](C)/C=C/C=C3\CO[C@@H]4[C@H](O)C(C)=CC(C(=O)O1)[C@]34O)O2 (stereo partly drawn) [Example 97]	33
CC[C@H](C)[C@H]1OC2(C=C[C@@H]1C)C[C@@H]1C[C@@H](C/C=C(\C)[C@@H](OC3CC(OC)C(OC(=O)c4ccc(F)cc4)C(C)O3)[C@@H](C)/C=C/C=C3\CO[C@@H]4[C@H](O)C(C)=CC(C(=O)O1)[C@]34O)O2 (stereo partly drawn) [Example 99]	100
